Read-outs that look alike come from different tables or passages of the source.
Tests used:
[1] = system: L-1210 Leukemia; test: L-1210 Leukemia (Table IX); format: in vivo, mice
Method: The sodium and ammonium salts of the present invention were tested against transplantable mouse tumors as indicated below.

[2] = Water solubility
[3] = system: L1210 Leukemia; test: L1210 Leukemia - Test 1 (survival of tumor-bearing mice); format: in vivo; conditions: for Effect MST % T/C / MST Days: d. 1 only
Source text: This evaluation of the ammonium salt finds the drug to be active against L1210 (ip) leukemia when administered ip one day post-implant of 10^6 L1210 cells (maximum T/C was 164%). […] The vehicle for the ammonium salt was water.

[4] = system: L1210 Leukemia; test: L1210 Leukemia - Test 3 (vehicle comparison); format: in vivo, mice; conditions: for Effect MST % T/C / MST Days: Day 1 only
[5] = system: B16 Melanoma; test: B16 Melanoma - Test 1 (ip tumor brei); format: in vivo, mice; conditions: for Effect MST % T/C / MST Days: QD 1→9, vehicle H2O
[6] = system: B16 Melanoma; test: B16 Melanoma - Test 2 (ip tumor brei); format: in vivo, mice; conditions: QD +9

SMILES: O=C1[O][Pt-2]2([NH2+]CC3(CCCCC3)C[NH2+]2)[O]C(=O)C1O [2-hydroxymalonato (1,1-diaminomethylcyclohexane)platinum (II)]
- Average Weight Change,g ([1]; 2 mg/kg/inj ip, qd 1→9): -1.3 g
- Effect MST % T/C ([1]; 2 mg/kg/inj ip, qd 1→9): 138 % T/C
- MST Days ([1]; 2 mg/kg/inj ip, qd 1→9): 9.0 days
- Survivors Day 5(45) ([1]; 2 mg/kg/inj ip, qd 1→9): 6/6
- Average Weight Change,g ([1]; 4 mg/kg/inj ip, qd 1→9): -1.7 g
- Effect MST % T/C ([1]; 4 mg/kg/inj ip, qd 1→9): 192 % T/C
- MST Days ([1]; 4 mg/kg/inj ip, qd 1→9): 12.5 days
- Survivors Day 5(45) ([1]; 4 mg/kg/inj ip, qd 1→9): 6/6
- Average Weight Change,g ([1]; 8 mg/kg/inj ip, qd 1→9): -2.1 g
- Effect MST % T/C ([1]; 8 mg/kg/inj ip, qd 1→9): 269 % T/C
- MST Days ([1]; 8 mg/kg/inj ip, qd 1→9): 17.5 days
- Survivors Day 5(45) ([1]; 8 mg/kg/inj ip, qd 1→9): 6/6
- Average Weight Change,g ([1]; 12 mg/kg/inj ip, Day 1): -1.6 g
- Effect MST % T/C ([1]; 12 mg/kg/inj ip, Day 1): 185 % T/C
- MST Days ([1]; 12 mg/kg/inj ip, Day 1): 12.0 days
- Survivors Day 5(45) ([1]; 12 mg/kg/inj ip, Day 1): 6/6
- Average Weight Change,g ([1]; 12 mg/kg/inj ip, qd 1→9): -2.1 g
- Effect MST % T/C ([1]; 12 mg/kg/inj ip, qd 1→9): 269 % T/C
- MST Days ([1]; 12 mg/kg/inj ip, qd 1→9): 17.5 days
- Survivors Day 5(45) ([1]; 12 mg/kg/inj ip, qd 1→9): 6/6
- Average Weight Change,g ([1]; 18 mg/kg/inj ip, Day 1): -2.0 g
- Effect MST % T/C ([1]; 18 mg/kg/inj ip, Day 1): 169 % T/C
- MST Days ([1]; 18 mg/kg/inj ip, Day 1): 11.5 days
- Survivors Day 5(45) ([1]; 18 mg/kg/inj ip, Day 1): 6/6
- Average Weight Change,g ([1]; 24 mg/kg/inj ip, Day 1): -2.8 g
- Effect MST % T/C ([1]; 24 mg/kg/inj ip, Day 1): 223 % T/C
- MST Days ([1]; 24 mg/kg/inj ip, Day 1): 14.5 days
- Survivors Day 5(45) ([1]; 24 mg/kg/inj ip, Day 1): 6/6
- Average Weight Change,g ([1]; 36 mg/kg/inj ip, Day 1): -3.6 g
- Effect MST % T/C ([1]; 36 mg/kg/inj ip, Day 1): 246 % T/C
- MST Days ([1]; 36 mg/kg/inj ip, Day 1): 16.0 days
- Survivors Day 5(45) ([1]; 36 mg/kg/inj ip, Day 1): 5/6
- maximum T/C ([1]; qd 1→9 (cis-DDP 2.4, parent 8 and 12, sodium salt 12 mg/kg/injection)): 269%
- maximum T/C ([1]; single ip injection at maximum tolerated dose (cis-DDP 8 mg/kg, the two others 36 mg/kg)): 246%
- Water-solubility at room temperature [2]: < 1600 µg/mL

SMILES: [NH2][Pt]1([NH2])[O]C(=O)C([O-])C(=O)[O]1.[NH4+] [Example 1, 2-Hydroxymalonato diammine platinum (II), ammonium salt]
- Effect MST % T/C ([3]; 10 mg/kg/day ip): 136 % T/C
- MST Days ([3]; 10 mg/kg/day ip): 9.5 days
- Effect MST % T/C ([3]; 20 mg/kg/day ip): 129 % T/C
- MST Days ([3]; 20 mg/kg/day ip): 9.0 days
- Effect MST % T/C ([3]; 40 mg/kg/day ip): 143 % T/C
- MST Days ([3]; 40 mg/kg/day ip): 10.0 days
- Effect MST % T/C ([3]; 60 mg/kg/day ip): 157 % T/C
- MST Days ([3]; 60 mg/kg/day ip): 11.0 days
- Effect MST % T/C ([3]; 80 mg/kg/day ip): 157 % T/C
- MST Days ([3]; 80 mg/kg/day ip): 11.0 days
- Effect MST % T/C ([3]; 100 mg/kg/day ip): 164 % T/C
- MST Days ([3]; 100 mg/kg/day ip): 11.5 days
- maximum T/C ([3]; ip one day post-implant of 10^6 L1210 cells, vehicle water): 164%
- Effect MST % T/C ([4]; 40 mg/kg ip, vehicle H2O): 143 % T/C
- MST Days ([4]; 40 mg/kg ip, vehicle H2O): 10.0 days
- Effect MST % T/C ([4]; 40 mg/kg ip, vehicle Saline): 114 % T/C
- MST Days ([4]; 40 mg/kg ip, vehicle Saline): 8.0 days
- Effect MST % T/C ([4]; 60 mg/kg ip, vehicle H2O): 143 % T/C
- MST Days ([4]; 60 mg/kg ip, vehicle H2O): 10.0 days
- Effect MST % T/C ([4]; 60 mg/kg ip, vehicle Saline): 100 % T/C
- MST Days ([4]; 60 mg/kg ip, vehicle Saline): 7.0 days
- Effect MST % T/C ([4]; 80 mg/kg ip, vehicle H2O): 143 % T/C
- MST Days ([4]; 80 mg/kg ip, vehicle H2O): 10.0 days
- Effect MST % T/C ([4]; 80 mg/kg ip, vehicle Saline): 114 % T/C
- MST Days ([4]; 80 mg/kg ip, vehicle Saline): 8.0 days
- Effect MST % T/C ([4]; 100 mg/kg ip, vehicle H2O): 107 % T/C
- MST Days ([4]; 100 mg/kg ip, vehicle H2O): 7.5 days
- Effect MST % T/C ([4]; 100 mg/kg ip, vehicle Saline): 143 % T/C
- MST Days ([4]; 100 mg/kg ip, vehicle Saline): 10.0 days
- Maximum increase in median lifespan (T/C) ([4]; single dose ip, saline and water as vehicles): 143%
- Effect MST % T/C ([5]; 4 mg/kg/day ip): 192 % T/C
- MST Days ([5]; 4 mg/kg/day ip): 37.5 days
- Effect MST % T/C ([5]; 8 mg/kg/day ip): 190 % T/C
- MST Days ([5]; 8 mg/kg/day ip): 37.0 days
- Effect MST % T/C ([5]; 16 mg/kg/day ip): 121 % T/C
- MST Days ([5]; 16 mg/kg/day ip): 23,5 Days
- Effect MST % T/C ([5]; 24 mg/kg/day ip): 36 % T/C
- MST Days ([5]; 24 mg/kg/day ip): 7.0 days
- Effect MST % T/C ([5]; 32 mg/kg/day ip): 31 % T/C
- MST Days ([5]; 32 mg/kg/day ip): 6.0 days
- maximum T/C ([5]; ip B16, ip QD 1→9): 190%
- Average Weight Change ([6]; 2 mg/kg/day ip): -0.7 g
- Effect MST % T/C ([6]; 2 mg/kg/day ip): 153 % T/C
- MST Days ([6]; 2 mg/kg/day ip): 31.5 days
- Average Weight Change ([6]; 4 mg/kg/day ip): -2.0 g
- Effect MST % T/C ([6]; 4 mg/kg/day ip): 158 % T/C
- MST Days ([6]; 4 mg/kg/day ip): 32.5 days
- Average Weight Change ([6]; 8 mg/kg/day ip): -0.9 g
- Effect MST % T/C ([6]; 8 mg/kg/day ip): 180 % T/C
- MST Days ([6]; 8 mg/kg/day ip): 37.0 days
- Average Weight Change ([6]; 16 mg/kg/day ip): -1.3 g
- Effect MST % T/C ([6]; 16 mg/kg/day ip): 234 % T/C
- MST Days ([6]; 16 mg/kg/day ip): 48.0 days
- Survivors Day 10 (60) ([6]; Day 10, 2 mg/kg/day ip): 9/10
- Survivors Day 10 (60) ([6]; Day 10, 4 mg/kg/day ip): 9/10
- Survivors Day 10 (60) ([6]; Day 10, 8 mg/kg/day ip): 9/10
- Survivors Day 10 (60) ([6]; Day 10, 16 mg/kg/day ip): 8/10
- Survivors Day 10 (60) ([6]; Day 60 (figure in parentheses), 16 mg/kg/day ip): 2
- Water-solubility at room temperature: 10000 µg/mL
- Solubility in H2O at 22-25°C (water): 10000 µg/mL

Reference: patent EP0041644B1 (priority 1980, dated 1981)
